Values joined by “and” are separate entries in the source; they are usually repeats but may differ in a detail not shown here. Equal entries are not always repeated. Where two headings read alike, the source gives them in different places.
What was measured:
WNK1 = WNK1 (Homo sapiens, UniProt Q9H4A3); assay: SelectScreen kinase assay
Description: (§1) Selectivity profiling assays were performed by the Invitrogen SelectScreen™ Services. […] The concentration of ATP was selected to be equal to the KM, unless indicated otherwise.

PIP4K2A = PIP4K2A (Homo sapiens, UniProt P48426); assay: SelectScreen kinase assay; settings: 1 h, 1 μM WEL028, 1 h preincubation
Description: as §1

CHEK1 (CHK1) = CHEK1 (CHK1) (Homo sapiens, UniProt O14757); assay: SelectScreen kinase assay; settings: 1 μM WEL028, 1 h preincubation
Description: as §1

CLK3 = CLK3 (Homo sapiens, UniProt P49761); assay: SelectScreen kinase assay
Description: as §1

CDK5/p35 = CDK5/p35 (Homo sapiens, UniProt Q00535); assay: SelectScreen kinase assay
Description: as §1

CSNK2A1 (CK2 alpha 1) = CSNK2A1 (CK2 alpha 1) (Homo sapiens, UniProt P68400); assay: SelectScreen kinase assay
Description: as §1

FER = FER (Homo sapiens, UniProt P16591); assay: SelectScreen kinase assay
Description: as §1

SIK1 = SIK1 (Homo sapiens, UniProt P57059); assay: SelectScreen kinase assay
Description: as §1

MAP3K14 (NIK) = MAP3K14 (NIK) (Homo sapiens, UniProt Q99558); assay: SelectScreen kinase assay
Description: as §1

~150 kDa protein = ~150 kDa protein (Homo sapiens, UniProt O14976); assay: Gel-based target engagement in HL-60 neutrophils; settings: HL-60, read-out: Inhibition of off-target labeling
Description: Data represent means ± SEM.
The term in situ is used to designate experiments in which live cell cultures are treated with inhibitor, whereas the term in vitro refers to experiments in which the inhibitor is incubated with cell lysates. Compounds were diluted in growth medium from a 1000x concentrated stock solution in DMSO. […] After 48 h, cells were treated with compound for 1 h. Cells were collected by suspension in PBS and centrifuged (1000g, 5 min, rt). Pellets were flash-frozen in liquid nitrogen and stored at −80 °C until use. For in situ treatment post-differentiation, HL-60 cells were differentiated as described above and incubated with compound for 1 h unless specified otherwise. Cells were collected by suspension for non-adherent cells and trypsinization for adherent cells. After collection, cells were centrifuged (200g, 5 min, rt) and washed in equal volume of PBS (1000g, 5 min, rt). Cell pellets were flash-frozen in liquid nitrogen and stored at −80 °C until use.

ALK [1] = assay: SelectScreen kinase assay; settings: IC50 on that kinase divided by IC50 on FES^S700C
Description: as §1

ALK [2] = molecular target: ALK (Homo sapiens, UniProt Q9UM73); assay: SelectScreen kinase assay
Description: as §1

ROCK2 = ROCK2 (Homo sapiens, UniProt O75116); assay: SelectScreen kinase assay; settings: 1 h, 1 μM WEL028, 1 h preincubation
Description: as §1

CDK5 (Inactive) = CDK5 (Inactive) (Homo sapiens, UniProt Q00535); assay: SelectScreen kinase assay
Description: as §1

CLK4 = CLK4 (Homo sapiens, UniProt Q9HAZ1); assay: SelectScreen kinase assay
Description: as §1

EPHA1 = EPHA1 (Homo sapiens, UniProt P21709); assay: SelectScreen kinase assay
Description: as §1

FES^S700C = FES^S700C (Homo sapiens, UniProt P07332, S700C); assay: FES Y713 autophosphorylation immunoblot, transfected HEK293T cells; format: cell-based; parameters: expressed in transfected cells; host or cells: HEK293T (transient, PEI); settings: WEL028 100 nM
Description: Samples were resolved by SDS-PAGE as described above, but transferred to 0.2 μm polyvinylidene difluoride membranes by Trans-Blot Turbo™ Transfer system (Bio-Rad) directly after fluorescence scanning. Membranes were washed with TBS (50 mM Tris pH 7.5, 150 mM NaCl) and blocked with 5% milk in TBS-T (50 mM Tris pH 7.5, 150 mM NaCl, 0.05% Tween-20) for 1 h at rt.
Membranes were then incubated with primary antibody in 5% milk in TBS-T (FLAG, V5, β-actin; o/n at 4 °C) or washed three times with TBS-T, followed by incubation with primary antibody in 5% BSA in TBS-T (other antibodies, o/n at 4 °C). Membranes were washed three times with TBS-T, incubated with matching secondary antibody in 5% milk in TBS-T (1:5000, 1 h at rt) and then washed three times with TBS-T and once with TBS. Luminol development solution (10 mL of 1.4 mM luminol in 100 mM Tris pH 8.8 + 100 µL of 6.7 mM p-coumaric acid in DMSO + 3 µL of 30% (v/v) H2O2) or Clarity Max™ ECL Substrate (Bio-Rad) was added and chemiluminescence was detected on ChemiDoc™ MP System.

[3] = 1 h, 1 μM WEL028, 1 h preincubation

Chain of CSNK2A1 (CK2 alpha 1) (P68400 whole entry): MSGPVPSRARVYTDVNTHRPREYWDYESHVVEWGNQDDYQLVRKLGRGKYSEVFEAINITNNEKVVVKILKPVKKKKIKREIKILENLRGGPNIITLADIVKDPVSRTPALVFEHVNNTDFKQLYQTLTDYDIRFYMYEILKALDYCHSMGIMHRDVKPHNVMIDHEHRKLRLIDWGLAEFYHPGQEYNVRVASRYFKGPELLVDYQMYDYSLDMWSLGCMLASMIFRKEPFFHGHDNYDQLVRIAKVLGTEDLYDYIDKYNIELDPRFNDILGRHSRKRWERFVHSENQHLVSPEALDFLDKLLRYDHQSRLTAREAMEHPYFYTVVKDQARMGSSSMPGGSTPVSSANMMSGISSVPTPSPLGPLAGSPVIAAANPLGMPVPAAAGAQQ
Chain of CDK5 (Inactive) (Q00535 whole entry): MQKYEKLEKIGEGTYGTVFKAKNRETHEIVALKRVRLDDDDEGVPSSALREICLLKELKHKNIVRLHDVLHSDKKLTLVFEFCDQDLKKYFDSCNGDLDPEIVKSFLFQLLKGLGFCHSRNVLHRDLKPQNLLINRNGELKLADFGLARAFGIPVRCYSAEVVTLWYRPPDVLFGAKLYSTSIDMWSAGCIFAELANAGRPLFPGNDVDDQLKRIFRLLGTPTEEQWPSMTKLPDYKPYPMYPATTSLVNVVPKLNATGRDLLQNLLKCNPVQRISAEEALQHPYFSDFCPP
Chain of CDK5/p35 (Q00535 whole entry): as above
Chain of CDK5/p35 (Q15078 whole entry partner): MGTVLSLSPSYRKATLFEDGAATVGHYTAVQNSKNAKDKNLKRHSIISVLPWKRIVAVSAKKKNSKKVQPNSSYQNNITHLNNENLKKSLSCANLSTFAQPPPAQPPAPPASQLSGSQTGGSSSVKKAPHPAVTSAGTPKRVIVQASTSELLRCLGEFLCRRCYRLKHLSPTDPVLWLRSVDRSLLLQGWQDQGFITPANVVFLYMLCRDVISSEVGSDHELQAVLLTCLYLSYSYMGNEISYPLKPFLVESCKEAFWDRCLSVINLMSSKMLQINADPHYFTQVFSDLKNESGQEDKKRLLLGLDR
Chain of ALK (Homo sapiens, UniProt Q9UM73) (Q9UM73 19-1620, species assumed): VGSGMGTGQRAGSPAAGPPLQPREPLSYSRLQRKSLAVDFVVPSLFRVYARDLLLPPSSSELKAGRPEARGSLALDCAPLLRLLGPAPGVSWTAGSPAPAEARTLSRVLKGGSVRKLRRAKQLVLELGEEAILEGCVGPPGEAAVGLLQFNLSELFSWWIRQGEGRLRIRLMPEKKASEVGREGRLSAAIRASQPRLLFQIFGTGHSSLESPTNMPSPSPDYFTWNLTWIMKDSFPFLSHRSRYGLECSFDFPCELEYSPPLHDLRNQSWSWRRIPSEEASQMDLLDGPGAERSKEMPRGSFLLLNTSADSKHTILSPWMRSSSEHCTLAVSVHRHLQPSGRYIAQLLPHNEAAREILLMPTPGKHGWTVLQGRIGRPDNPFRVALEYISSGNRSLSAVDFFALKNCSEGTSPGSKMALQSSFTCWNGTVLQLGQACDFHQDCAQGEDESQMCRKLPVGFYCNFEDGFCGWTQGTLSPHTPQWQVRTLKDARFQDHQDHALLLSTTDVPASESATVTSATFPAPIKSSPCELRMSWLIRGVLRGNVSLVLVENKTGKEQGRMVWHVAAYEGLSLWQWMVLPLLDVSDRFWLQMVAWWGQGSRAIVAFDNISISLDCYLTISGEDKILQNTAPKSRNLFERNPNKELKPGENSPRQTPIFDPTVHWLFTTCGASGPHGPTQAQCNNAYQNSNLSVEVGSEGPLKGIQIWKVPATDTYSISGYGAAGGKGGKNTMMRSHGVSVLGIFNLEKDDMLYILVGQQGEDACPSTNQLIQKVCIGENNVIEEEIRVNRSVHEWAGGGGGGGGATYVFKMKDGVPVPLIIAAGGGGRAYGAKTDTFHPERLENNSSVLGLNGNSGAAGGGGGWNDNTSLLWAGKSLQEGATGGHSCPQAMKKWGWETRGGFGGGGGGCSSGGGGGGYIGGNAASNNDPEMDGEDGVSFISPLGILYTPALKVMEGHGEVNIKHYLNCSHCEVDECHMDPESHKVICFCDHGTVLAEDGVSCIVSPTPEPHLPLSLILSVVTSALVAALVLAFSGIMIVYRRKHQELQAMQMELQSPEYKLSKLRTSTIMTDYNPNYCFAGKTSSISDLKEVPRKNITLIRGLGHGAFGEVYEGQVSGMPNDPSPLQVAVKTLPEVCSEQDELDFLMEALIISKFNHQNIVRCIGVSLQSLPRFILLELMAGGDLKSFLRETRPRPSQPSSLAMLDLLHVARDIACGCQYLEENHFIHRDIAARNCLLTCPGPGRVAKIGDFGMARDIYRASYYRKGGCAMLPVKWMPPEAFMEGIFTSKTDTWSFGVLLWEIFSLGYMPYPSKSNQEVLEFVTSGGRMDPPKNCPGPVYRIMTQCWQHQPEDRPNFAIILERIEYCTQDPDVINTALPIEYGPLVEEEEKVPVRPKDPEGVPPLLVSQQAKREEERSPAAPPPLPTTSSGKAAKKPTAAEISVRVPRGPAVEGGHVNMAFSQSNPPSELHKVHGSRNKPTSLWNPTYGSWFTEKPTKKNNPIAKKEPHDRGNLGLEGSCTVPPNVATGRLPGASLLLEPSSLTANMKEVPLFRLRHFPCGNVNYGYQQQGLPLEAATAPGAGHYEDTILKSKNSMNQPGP
Chain of FES^S700C (P07332 whole entry S700C): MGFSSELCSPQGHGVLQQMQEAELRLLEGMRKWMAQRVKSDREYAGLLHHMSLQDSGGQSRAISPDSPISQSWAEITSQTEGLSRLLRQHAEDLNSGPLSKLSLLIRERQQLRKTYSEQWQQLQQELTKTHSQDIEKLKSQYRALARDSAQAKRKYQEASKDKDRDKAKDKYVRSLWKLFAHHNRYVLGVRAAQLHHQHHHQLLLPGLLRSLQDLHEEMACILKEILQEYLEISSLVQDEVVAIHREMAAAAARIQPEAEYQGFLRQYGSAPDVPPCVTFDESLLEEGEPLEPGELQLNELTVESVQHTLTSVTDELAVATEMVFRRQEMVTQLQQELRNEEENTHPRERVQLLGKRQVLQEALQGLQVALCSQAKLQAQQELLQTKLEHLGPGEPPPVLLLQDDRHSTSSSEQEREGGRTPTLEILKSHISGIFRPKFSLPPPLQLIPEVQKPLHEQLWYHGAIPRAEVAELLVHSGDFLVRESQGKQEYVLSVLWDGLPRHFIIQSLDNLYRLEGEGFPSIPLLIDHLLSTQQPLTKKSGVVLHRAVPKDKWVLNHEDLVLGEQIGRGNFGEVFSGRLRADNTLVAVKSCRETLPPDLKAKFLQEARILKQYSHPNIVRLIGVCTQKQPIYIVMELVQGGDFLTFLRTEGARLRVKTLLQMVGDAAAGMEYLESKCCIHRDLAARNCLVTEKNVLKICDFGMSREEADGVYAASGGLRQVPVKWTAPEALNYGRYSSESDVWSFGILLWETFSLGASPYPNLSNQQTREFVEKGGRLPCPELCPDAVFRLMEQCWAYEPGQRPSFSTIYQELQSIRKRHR
Chain of FER (P16591 whole entry): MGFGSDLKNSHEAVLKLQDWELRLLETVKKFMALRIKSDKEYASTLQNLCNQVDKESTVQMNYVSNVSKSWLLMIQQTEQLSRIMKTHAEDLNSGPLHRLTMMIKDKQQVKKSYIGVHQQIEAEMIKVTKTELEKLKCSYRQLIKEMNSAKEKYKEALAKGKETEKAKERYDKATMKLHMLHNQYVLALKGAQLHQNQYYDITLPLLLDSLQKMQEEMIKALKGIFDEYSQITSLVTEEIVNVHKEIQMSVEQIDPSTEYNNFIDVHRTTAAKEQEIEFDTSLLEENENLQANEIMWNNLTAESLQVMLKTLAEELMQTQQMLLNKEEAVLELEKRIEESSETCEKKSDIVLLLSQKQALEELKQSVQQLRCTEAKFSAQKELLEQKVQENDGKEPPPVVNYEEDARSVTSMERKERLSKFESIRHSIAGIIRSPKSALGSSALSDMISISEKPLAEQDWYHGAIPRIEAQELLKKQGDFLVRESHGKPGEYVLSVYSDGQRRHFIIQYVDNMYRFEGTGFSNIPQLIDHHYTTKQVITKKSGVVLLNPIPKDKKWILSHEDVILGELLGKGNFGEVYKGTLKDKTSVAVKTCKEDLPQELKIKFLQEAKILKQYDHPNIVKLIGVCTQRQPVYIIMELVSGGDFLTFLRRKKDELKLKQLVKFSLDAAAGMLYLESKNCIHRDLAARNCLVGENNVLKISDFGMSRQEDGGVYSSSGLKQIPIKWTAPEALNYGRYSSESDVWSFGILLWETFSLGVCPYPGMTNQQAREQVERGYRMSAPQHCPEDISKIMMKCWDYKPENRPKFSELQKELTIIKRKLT
Chain of CLK4 (Q9HAZ1 whole entry, species assumed): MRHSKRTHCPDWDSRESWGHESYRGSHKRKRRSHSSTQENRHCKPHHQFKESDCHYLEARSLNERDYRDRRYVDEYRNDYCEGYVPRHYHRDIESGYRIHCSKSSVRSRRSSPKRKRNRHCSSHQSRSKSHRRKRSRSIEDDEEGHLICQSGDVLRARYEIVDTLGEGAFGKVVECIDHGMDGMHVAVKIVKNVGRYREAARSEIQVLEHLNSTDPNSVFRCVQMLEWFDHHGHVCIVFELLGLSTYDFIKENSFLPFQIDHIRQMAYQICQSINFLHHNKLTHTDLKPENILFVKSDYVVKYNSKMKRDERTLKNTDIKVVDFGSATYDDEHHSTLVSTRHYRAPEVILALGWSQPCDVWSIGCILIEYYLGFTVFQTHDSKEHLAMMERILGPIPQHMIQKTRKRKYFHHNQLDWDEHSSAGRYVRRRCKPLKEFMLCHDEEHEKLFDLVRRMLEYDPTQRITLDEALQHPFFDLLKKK

C#CCOc1ccc(Nc2ncc(Cl)c(Nc3ccccc3NC(=O)C=C)n2)c(OC)c1 [Compound 6]
Inhibition (%) (WNK1; 1 μM WEL028, 1 h preincubation): 5% | Inhibition at 1 µM (%) (WNK1; 1 µM, LanthaScreen Binding): 11% | inhibition at 1 µM (PIP4K2A): -10% | Inhibition (%) (CHEK1 (CHK1)): 0% | inhibition at 1 µM (CLK3; [3]): 11% | Inhibition at 1 µM (%) (CLK3; CLK3, 1 µM, ZLYTE, ATP Km app): 23% | inhibition at 1 µM (CDK5/p35; [3]): -4% | Inhibition at 1 µM (%) (CDK5/p35; CDK5/p35, 1 µM, ZLYTE, ATP Km app, listed as WEL028, 1 µM): -8% and 0% | inhibition at 1 µM (CSNK2A1 (CK2 alpha 1); [3]): 4% | Inhibition at 1 µM (%) (CSNK2A1 (CK2 alpha 1); CSNK2A1 (CK2 alpha 1), 1 µM, ZLYTE, ATP Km app, listed as WEL028, 1 µM): 9% and 0% | inhibition at 1 µM (FER; [3]): 23% | Inhibition at 1 µM (%) (FER; FER, 1 µM, ZLYTE, ATP Km app, listed as WEL028, 1 µM): 27% | inhibition at 1 µM (FER; read-out: Inhibition at 1 µM (%), FER, 1 µM, ZLYTE, ATP Km app): 20% | Inhibition (%) (SIK1; 1 μM WEL028, 1 h preincubation): 5% | Inhibition at 1 µM (%) (SIK1; 1 µM, LanthaScreen Binding, listed as WEL028, 1 µM): 5% | inhibition at 1 µM (SIK1; read-out: Inhibition at 1 µM (%), 1 µM, LanthaScreen Binding): 4% | inhibition at 1 µM (MAP3K14 (NIK); [3]): 3% | Inhibition at 1 µM (%) (MAP3K14 (NIK); MAP3K14 (NIK), 1 µM, LanthaScreen Binding, listed as WEL028, 1 µM): 7% and -1% | inhibition at 0.1 µM (~150 kDa protein): ~80% | Apparent fold selectivity (ALK [1]): 28 fold | IC50 (ALK [2]): 126 nM | inhibition at 1 µM (ALK [2]; [3]): 89% | inhibition at 1 µM (ALK [2]; read-out: Inhibition at 1 µM (%), ALK, 1 µM, ZLYTE, ATP Km app): 90% | inhibition at 1 µM (ROCK2): 0% | inhibition at 1 µM (CDK5 (Inactive); [3]): 3% | Inhibition at 1 µM (%) (CDK5 (Inactive); CDK5 (Inactive), 1 µM, LanthaScreen Binding, listed as WEL028, 1 µM): 2% | inhibition at 1 µM (CDK5 (Inactive); read-out: Inhibition at 1 µM (%), CDK5 (Inactive), 1 µM, LanthaScreen Binding): 3% | IC50 (CLK4): 1260 nM | inhibition at 1 µM (CLK4; [3]): 53% | inhibition at 10 µM (CLK4; 1 h, log[inhibitor] (M) -5.00, LanthaScreen Binding): 30% | inhibition at 3.311 µM (CLK4; 1 h, log[inhibitor] (M) -5.48, LanthaScreen Binding): 55% | inhibition at 1.122 µM (CLK4; 1 h, log[inhibitor] (M) -5.95, LanthaScreen Binding): 64% | inhibition at 0.3715 µM (CLK4; 1 h, log[inhibitor] (M) -6.43, LanthaScreen Binding): 39% | inhibition at 0.123 µM (CLK4; 1 h, log[inhibitor] (M) -6.91, LanthaScreen Binding): 26% | inhibition at 0.0138 µM (CLK4; 1 h, log[inhibitor] (M) -7.86, LanthaScreen Binding): 15% | inhibition at 0.001514 µM (CLK4; 1 h, log[inhibitor] (M) -8.82, LanthaScreen Binding): 11% | inhibition at 0.004571 µM (CLK4; 1 h, log[inhibitor] (M) -[…], LanthaScreen Binding): 8% | Inhibition at 1 µM (%) (CLK4; CLK4, 1 µM, LanthaScreen Binding, listed as WEL028, 1 µM): 52% | Apparent fold selectivity (CLK4; IC50 on that kinase divided by IC50 on FES^S700C): 272 fold | inhibition at 1 µM (CLK4; read-out: Inhibition at 1 µM (%), CLK4, 1 µM, LanthaScreen Binding): 54% | inhibition at 1 µM (EPHA1; 1 h): 5% | inhibition at 1 µM (EPHA1; read-out: Inhibition at 1 µM (%)): 5% | Relative FES labeling (%) (FES^S700C; Fig. 4i, anti-phospho-FES Y713 band intensity, replicates, normalized to vehicle): 6.91% and 5.589% and 0.4481% | Autophosphorylation of Tyr713 (FES^S700C): fully abolished autophosphorylation

Source: article PMC7316778 (Nature Communications, 2020)
